For series [1], the system named is ovarian and breast cancer. The note with it: cited from earlier work.
The test system of a further series is TS. The note with it: cited from earlier work.
For series [2] the following is noted: cited from earlier work.
Series [3] concerns L1210 murine leukemia cell line. Put plainly: growth inhibition of L1210 murine leukemia cell line in vitro. The series is classed as cell-based. The note with it: Mus musculus, L1210, 72 h. The method, then:
The compounds of formula I were also tested against the L1210 murine leukemia cell line in vitro.
A cell culture of the L1210 murine leukemia cell line is grown in RPMI 1640 culture medium supplemented with 5% fetal bovine serum containing gentamicin (50 micrograms per milliliter). Dilutions of the test compound are prepared in the appropriate solvent and 20 microliters of each dilution are added to a 24-well Linbro tissue culture plate, followed by the addition of 2.0 ml of cell suspension containing 3×10^4 cells/milliliter. Solvent and medium controls are included in each test.
After incubation at 37° C. for three days in 5% CO2, the contents of each well are removed and the cells are counted in a ZBI Coulter counter.

Series [4] deals with T1, Thymidylate synthase isolated from L1210 murine leukemia cells (Mus musculus, UniProt P07607).
T1 construct: endogenous in cells
Put plainly: inhibition of thymidylate synthase (tritium release assay). The format is biochemical. The note with it: 50 μ molar deoxyuridine, 100 μmolar 5,10-methylene-tetrahydrofolate. The method, then: The compounds of formula I are valuable anticancer agents. The tests employed indicate that compounds of formula I inhibit the enzyme thymidylate synthase. Thymidylate synthase catalyzes the methylation of deoxyuridine monophosphate to thymidine monophosphate and therefore plays a key role in the synthesis of the only nucleotide required exclusively for deoxyribonucleic acid (DNA) synthesis. […] Thus, the compounds of formula I were tested for their ability to inhibit thymidylate synthase. […] Inhibition of thymidylate synthetase by the new quinazoline antifolate CB3717: enzyme purification and kinetics. In: […]., Simmonds, H. A., Muller, M. M. (eds.) "Purine metabolism in man, IV part B. Biochemical, immunological and cancer research." Plenum Publishing Corp., New York, 1984, pp. 375-378. Thymidylate synthase enzyme activity was determined by the tritium release assay method described by Roberts, Biochemistry, 5:3546-3548 (1966).

Series [5] has as its system cells made resistant to the classical DHFR inhibitor methotrexate. The following applies: cited from earlier work.

T1 sequence (P07607 whole entry): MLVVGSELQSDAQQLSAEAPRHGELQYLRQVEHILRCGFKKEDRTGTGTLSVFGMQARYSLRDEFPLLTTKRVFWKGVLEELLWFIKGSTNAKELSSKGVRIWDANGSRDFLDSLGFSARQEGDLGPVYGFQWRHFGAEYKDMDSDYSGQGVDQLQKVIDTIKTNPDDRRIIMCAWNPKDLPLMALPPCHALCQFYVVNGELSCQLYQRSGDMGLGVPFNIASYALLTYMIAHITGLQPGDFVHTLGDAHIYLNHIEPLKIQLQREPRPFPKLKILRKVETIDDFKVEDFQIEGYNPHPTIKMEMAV

For `C#CCN(Cc1ccc2nc(N)nc(O)c2c1)c1ccc(C(=O)N[C@@H](CCC(=O)O)C(=O)O)cc1` [CB 3717, N-(4(N-((2-amino-4-hydroxy-6-quinazolinyl)methyl)prop-2-ynylamino)benzoyl)-L-glutamic acid], in series [1] (Phase I clinical trials), the liver toxicity result is reported as “nondose related liver toxicity”. Further, in series [1] (Phase I clinical trials, due in part to poor solubility), the kidney toxicity entry is given as “dose limiting kidney toxicity”. The clinical responses entry in series [1] (Phase I, patients with ovarian and breast cancer) was “Minor and partial clinical responses”. Moreover, in the series with TS (background), the “TS inhibition (in words)” value is “selective, tight binding TS inhibitor”. Also, the solubility entry in series [2] is “poor solubility”.
Usually IC50 stands for the concentration at which inhibition is half-maximal. High values mean weaker potency, low ones greater potency. In the case of `C#CCN(Cc1ccc2nc[nH]c(=O)c2c1)c1ccc(C(C)=O)cc1` [Example 2, 6-[[(4-Acetylphenyl)-2-propynylamino]methyl]-4(3H)-quinazolinone], the IC50 in series [3] amounted to 7 µM; in series [4] it was 2.4 µM.
For the compound `C#CCN(Cc1ccc2nc[nH]c(=O)c2c1)c1ccc(Cl)c(Cl)c1` [Example 2a, 6-[[(3,4-Dichlorophenyl)-2-propynylamino]methyl]-4(3H)-quinazolinone], the 50% inhibitory concentration (IC50) in series [3] was 4 µM; in series [4], 11 µM.
Consider `C#CCN(Cc1ccc2nc[nH]c(=O)c2c1)c1cc(OC)c(OC)c(OC)c1` [Example 2c, 6-[[2-Propynyl-(3,4,5-trimethoxyphenyl)amino]methyl]-4(3H)-quinazolinone], for which the IC50 in series [3] was over 10 µM; in series [4] it was 96 µM.
In the case of `C#CCN(Cc1ccc2nc(N)[nH]c(=O)c2c1)c1ccc(C(N)=O)cc1` [Example 2d, 4-[[(2-Amino-3,4-dihydro-4-oxo-6-quinazolinyl)methyl]-2-propynylamino]benzamide], the values for the IC50 in series [3] and in series [4] were over 20 µM and 0.64 µM, respectively.
For `C#CCN(Cc1ccc2nc(N)[nH]c(=O)c2c1)c1ccc(C#N)cc1` [Example 2e, 4-[[(2-Amino-3,4-dihydro-4-oxo-6-quinazolinyl)methyl]-2-propynylamino]benzonitrile], the values for the half-maximal inhibitory concentration (IC50) in series [3] and in series [4] were 5.9 µM and 1.3 µM, respectively.
Compound `C#CCN(Cc1ccc2nc(N)[nH]c(=O)c2c1)c1ccc(F)cc1` [Example 2f, 2-Amino-6-[[(4-fluorophenyl)-2-propynylamino]methyl]-4(3H)-quinazolinone] displayed an IC50 in series [4] of 11.5 µM.
In the case of `C#CCN(Cc1ccc2nc(N)nc(O)c2c1)c1ccc(Cl)c(Cl)c1` [Example 2g, 2-Amino-6-[[(3,4-Dichlorophenyl)-2-propynylamino]methyl]-4(3H)-quinazolinone], the IC50 came out at 12.6 µM in series [3] and 5 µM in series [4].
Turning to `C#CCN(Cc1ccc2nc(N)[nH]c(=O)c2c1)c1ccc(OC(F)(F)F)cc1` [Example 2h, 2-Amino-6-[[2-propynyl[4-(trifluoromethoxy)phenyl]amino]methyl]-4(3H)-quinazolinone], the values for the IC50 in series [3] and in series [4] were 25.1 µM and 11.3 µM, respectively.
In the case of `C#CCN(Cc1ccc2nc(N)[nH]c(=O)c2c1)c1ccc([N+](=O)[O-])cc1` [Example 2i, 2-Amino-6-[[(4-nitrophenyl)-2-propynylamino]methyl]-4(3H)-quinazolinone], the IC50 turned out to be 2.4 µM in series [3] and 0.62 µM in series [4].
Turning to `C#CCN(Cc1ccc2nc(N)[nH]c(=O)c2c1)c1ccc(C(C)=O)cc1` [Example 2j, 6-[[(4-Acetylphenyl)-2-propynylamino]methyl]-2-amino-4(3H)-quinazolinone], the half-inhibitory concentration (IC50) in series [3] is 4.3 µM; in series [4], 0.77 µM.
For the compound `C#CCN(Cc1ccc2nc(N)[nH]c(=O)c2c1)c1ccc(C(=O)C(F)(F)F)cc1` [Example 2k, 2-Amino-6-[[2-propynyl[4-(trifluoroacetyl)phenyl]amino]methyl]-4(3H)-quinazolinone], the IC50 in series [3] worked out at 11.8 µM; in series [4], 0.51 µM.
Take `C#CCN(Cc1ccc2nc(N)nc(O)c2c1)c1cc(OC)c(OC)c(OC)c1` [Example 2l, 2-Amino-6-[[2-propynyl(3,4,5-trimethoxyphenyl)amino]methyl]-4(3H)-quinazolinone]: the IC50 in series [3] was over 20 µM; in series [4], 50 µM.
With `C#CCN(Cc1ccc2nc(N)[nH]c(=O)c2c1)c1ccc(S(=O)(=O)N(C)C)cc1` [Example 2n, 4-[[(2-Amino-3,4-dihydro-4-oxo-6-quinazolinyl)methyl]-2-propynylamino]-N,N-dimethylbenzenesulfonamide], the 50% inhibitory concentration (IC50) in series [3] was 4.1 µM; in series [4], 1 µM.
Consider `C#CCN(Cc1ccc2nc(N)[nH]c(=O)c2c1)c1ccc(C(=O)O)cc1` [formula A; R=OH], for which the “decrease of TS inhibition over the classical antifolate analog on removal of the glutamate residue” value in the series with TS (Jones et al, J. Med. Chem. 29, 1114-1118 (1986)) is 84 fold.
Regarding `COc1cc(NCc2ccc3nc(N)nc(N)c3c2C)cc(OC)c1OC` [trimetrexate], the “circumvention of impaired transport resistance” value in series [5] is reported as “shown to circumvent the impaired transport”.
